Measured values reported in patent publication US5008245A (University of Kentucky Research Foundation, priority 1988, dated 1991).
Read-outs that look alike come from different tables or passages of the source.

What was measured:
Type in all cases: biochemical
[1] = target: T1, HLE (human leukocyte elastase) (Homo sapiens, UniProt P08246); experiment: Inhibition of HLE by desmosine-like peptidyl carbamates, steady state kinetics (Dixon plot, Lineweaver-Burk slope replot)
T1 sequence (P08246 30-267): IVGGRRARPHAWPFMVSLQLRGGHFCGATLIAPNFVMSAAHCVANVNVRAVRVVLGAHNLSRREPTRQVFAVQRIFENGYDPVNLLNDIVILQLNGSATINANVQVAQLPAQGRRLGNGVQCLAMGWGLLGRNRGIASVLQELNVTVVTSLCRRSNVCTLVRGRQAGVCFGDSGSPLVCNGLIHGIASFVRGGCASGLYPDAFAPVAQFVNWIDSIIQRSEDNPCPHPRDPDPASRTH
Description: ^c Lines contained linear regression analysis correlations of >0.950.
^d Ki values determined from LineweaverBurk slope replots. Slope
were obtained from lines with linear regression analysis correlations of
^a Ki value was determined by steady state kinetics.
(§1) These studies are conducted to show the activities of some of the compounds of this invention as inhibitors of various forms of the enzyme elastase.

[2] = target: PPE (porcine pancreatic elastase) (Sus scrofa, UniProt P00772); experiment: Inhibition of PPE by peptidyl carbamates; settings: Ex. 67 table, N.I. = no inhibition at I/E = 100
Description: as §1
^c N.I. refers to no inhibition at I/E = 100.

enzyme elastase = experiment: Inhibition of the enzyme elastase, Ki / inhibitor dissociation constants; settings: p-nitrophenyl at P1 replaced by N-phenylthiotetrazole
[3] = Table 2, variations in P3, Dixon plot, linear regression correlations >0.950, read-out: Ki values (μM) Dixon
[4] = Table 2, variations in P3, Lineweaver-Burk slope replots, correlations >0.990, read-out: Ki values (μM) Replot
[5] = Table 1, variations in P4, Dixon plot, linear regression correlations >0.950, read-out: Ki value (μM) Dixon
[6] = Table 1, variations in P4, Lineweaver-Burk slope replots, correlations >0.990, read-out: Ki value (μM) Replot
[7] = Ki values (μM) Dixon, Table 2, variations in P3, Dixon plot, linear regression correlations >0.950
[8] = Ki values (μM) Replot, Table 2, variations in P3, Lineweaver-Burk slope replots, correlations >0.990

PPE (porcine pancreatic elastase), sequence (P00772 27-266): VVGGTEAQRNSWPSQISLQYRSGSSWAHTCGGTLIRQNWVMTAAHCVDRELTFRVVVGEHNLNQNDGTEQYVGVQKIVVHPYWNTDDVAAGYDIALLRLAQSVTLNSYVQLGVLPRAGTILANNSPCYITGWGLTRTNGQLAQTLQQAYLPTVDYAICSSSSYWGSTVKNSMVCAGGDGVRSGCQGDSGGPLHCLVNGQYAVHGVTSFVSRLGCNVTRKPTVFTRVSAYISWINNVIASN

Molecule	Ki [1, 3]	Ki [1, 4]	Ki [1, 5]	Ki [1, 6]	Ki (μM) PPE ([2]; variations at P4)	further results
COC(=O)CCC(=O)NC(CCCNC(=O)OCc1ccccc1)C(=O)NC(C)C(=O)N1CCCC1C(=O)CN(C(=O)Oc1ccc([N+](=O)[O-])cc1)C(C)C (single isomer, unassigned) [Compound 46b, p-Nitrophenyl N-[Methoxysuccinyl-(Nδ -carbobenzoxy)ornithylalanylprolylmethyl]-N-isopropylcarbamate]			8.8 µM	7.95 µM	N.I.	
p-Nitrophenyl N-[Methoxysuccinyl-(Nδ -benzoyl)ornithylalanylprolylmethyl]-N-isopropylcarbamate [Compound 47b]			10 µM	17.7 µM	N.I.	
COC(=O)CCC(=O)NC(CCCNC(=O)OCc1ccccc1)C(=O)NC(C)C(=O)N1CCCC1C(=O)CN(C(=O)Oc1ccc([N+](=O)[O-])cc1)C(C)C (single isomer, unassigned) [Compound 46a, p-Nitrophenyl N-[Methoxysuccinyl-(Nδ -carbobenzoxy)ornithylalanylprolylmethyl]-N-isopropylcarbamate]			0.43 µM	0.36 µM	N.I.	Ki ([1]; Ex. 67 table, variations at P4, read-out: Ki (μM) HLE): 0.65 µM
COC(=O)CCC(=O)NC(CCCCNC(=O)c1ccccc1)C(=O)NC(C)C(=O)N1CCCC1C(=O)CN(C(=O)Oc1ccc([N+](=O)[O-])cc1)C(C)C (single isomer, unassigned) [Compound 45a, p-Nitrophenyl N-[Methoxysuccinyl-(Nε -benzoyl)lysylalanylprolylmethyl]-N-isopropylcarbamate]			0.73 µM	0.38 µM	N.I.	
COC(=O)CCC(=O)NC(CCCCNC(=O)c1ccccc1)C(=O)NC(C)C(=O)N1CCCC1C(=O)CN(C(=O)Oc1ccc([N+](=O)[O-])cc1)C(C)C (single isomer, unassigned) [Compound 45b, p-Nitrophenyl N-[Methoxysuccinyl-(Nε -benzoyl)lysylalanylprolylmethyl]-N-isopropylcarbamate]			3.7 µM	3.13 µM	N.I.	
COC(=O)CCC(=O)NC(CCCCNC(=O)OCc1ccccc1)C(=O)NC(C)C(=O)N1CCCC1C(=O)CN(C(=O)Oc1ccc([N+](=O)[O-])cc1)C(C)C (single isomer, unassigned) [Compound 44a, p-Nitrophenyl N-[Methoxysuccinyl-(Nε -carbobenzoxy)lysylalanylprolylmethyl]-N-isopropylcarbamate]			0.56 µM	0.47 µM	N.I.	
COC(=O)CCC(=O)NC(CCCCNC(=O)OCc1ccccc1)C(=O)NC(C)C(=O)N1CCCC1C(=O)CN(C(=O)Oc1ccc([N+](=O)[O-])cc1)C(C)C (single isomer, unassigned) [Compound 44b, p-Nitrophenyl N-[Methoxysuccinyl-(Nε -carbobenzoxy)lysylalanylprolylmethyl]-N-isopropylcarbamate]			7.3 µM	7.63 µM	N.I.	
COC(=O)CCC(=O)NC(C)C(=O)NC(CCCCNC(=O)OCc1ccccc1)C(=O)N1CCCC1C(=O)CN(C(=O)Sc1nnnn1-c1ccccc1)C(C)C (stereo not drawn) [PC5, S-(1-Phenyl-5-tetrazoyl)-N-[methoxysuccinyl-alanyl-(N6-carbonbenzoxyl)lysylprolylmethyl]-N-isopropyl thiocarbamate]						Ki (enzyme elastase): 0.02 µM
COC(=O)CCC(=O)NC(CCCNC(=O)OCc1ccccc1)C(=O)NC(C)C(=O)N1CCCC1C(=O)CN(C(=O)Sc1nnnn1-c1ccccc1)C(C)C (stereo not drawn) [PC6, S-(1-Phenyl-5-tetrazoyl)-N-[methoxysuccinyl-Nδ-carbobenzoxyl) ornithyl alanyl prolyl methyl]-N-isopropyl thiocarbamate]						Ki (enzyme elastase): 0.003 µM
COC(=O)CCC(=O)N[C@@H](C)C(=O)N[C@@H](CCCNC(=O)c1ccccc1)C(=O)N1CCC[C@@H]1C(=O)CN(C(=O)Oc1ccc([N+](=O)[O-])cc1)C(C)C [Compound 51b]						Ki [1, 7]: 104 µM; Ki [1, 8]: 100 µM; Ki (μM) PPE ([2]; variations at P3): N.I.
p-Nitrophenyl N-[Methoxysuccinyl-(Nδ -benzoyl)ornithylalanylprolylmethyl]-N-isopropylcarbamate [Compound 47a]			0.65 µM	0.19 µM	N.I.	
p-Nitrophenyl N-[Methoxysuccinyl-(Nδ -carbobenzoxy)lysylprolylmethyl]-N-isopropylcarbamate [Compound 48a]	1.1 µM	0.22 µM				Ki ([2]; variations at P3): 3.4 µM
COC(=O)CCC(=O)N[C@@H](C)C(=O)N[C@@H](CCCCNC(=O)OCc1ccccc1)C(=O)N1CCC[C@@H]1C(=O)CN(C(=O)Oc1ccc([N+](=O)[O-])cc1)C(C)C [Compound 48b]						Ki ([1]; Ki (μM) HLE, Ex. 67 table, variations at P3): 11.3 µM; Ki [1, 7]: 20.4 µM; Ki [1, 8]: 11.3 µM; Ki (μM) PPE ([2]; variations at P3): N.I.

Further lines, with some results ahead:

Ki [1, 3]	Ki [1, 4]	Ki [1, 5]	Ki [1, 6]	Ki (μM) PPE ([2]; variations at P4)	Molecule	further results
0.75 µM	1.05 µM				p-Nitrophenyl N-[Methoxysuccinylalanyl-Nδ -carbobenzoxy)ornithylprolylmethyl]-N-isopropylcarbamate [Compound 50a]	Ki ([2]; variations at P3): 8.65 µM
5.33 µM	2.14 µM				COC(=O)CCC(=O)NC(C)C(=O)NC(CCCNC(=O)c1ccccc1)C(=O)N1CCCC1C(=O)CN(C(=O)Oc1ccc([N+](=O)[O-])cc1)C(C)C (stereo not shown) [Compound 51a]	Ki ([2]; variations at P3): 14.3 µM
1.6 µM	0.31 µM				COC(=O)CCC(=O)N[C@@H](C)C(=O)N[C@@H](CCCCNC(=O)c1ccccc1)C(=O)N1CCC[C@H]1C(=O)CN(C(=O)Oc1ccc([N+](=O)[O-])cc1)C(C)C [Compound 49a]	Ki ([2]; variations at P3): 3.8 µM
22.2 µM	19.2 µM				COC(=O)CCC(=O)NC(C)C(=O)NC(CCCNC(=O)OCc1ccccc1)C(=O)N1CCCC1C(=O)CN(C(=O)Oc1ccc([N+](=O)[O-])cc1)C(C)C (stereo not shown) [Compound 50b, p-Nitrophenyl N-[Methoxysuccinylalanyl-(Nδ -carbobenzoxy)ornithylprolymethyl]-N-isopropylcarbamate]	Ki (μM) PPE ([2]; variations at P3): N.I.
34 µM	38.5 µM				COC(=O)CCC(=O)N[C@@H](C)C(=O)N[C@@H](CCCCNC(=O)c1ccccc1)C(=O)N1CCC[C@H]1C(=O)CN(C(=O)Oc1ccc([N+](=O)[O-])cc1)C(C)C [Compound 49b]	Ki (μM) PPE ([2]; variations at P3): N.I.
